According to patent US20070105721A1, “Vinylogous 4-Hpyrones and their use in promoting plant growth” (priority 2003, published 2007):

Assays:
[1] = tested on: Passerina vulgaris; assay: Germination enhancement of species used in amenity horticulture; type: in vivo; details: compound 1a at 100 ppb; constant darkness at 18° C. Also: tested at 0.1 ppm.
Experimental: (§1) For each species, three replicates of 25 seeds were placed on Petri dishes lined with seed germination paper. The Petri dishes were moistened with de-ionised water (control) or 100 ppb compound 1a. All species were incubated in constant darkness at 18° C. Germination (radicle emergence) was recorded five times a week.

[2] = tested on: Stylidium affine; assay: as above; type: in vivo; details: compound 1a at 100 ppb; constant darkness at 18° C.
Experimental: as §1

[3] = tested on: Syncarpha vestita; assay: as above; type: in vivo; details: compound 1a at 100 ppb; constant darkness at 18° C.
Experimental: as §1

[4] = tested on: Conostylis aculeata; assay: as above; type: in vivo; details: compound 1a at 100 ppb; constant darkness at 18° C.; mean ± standard error
Experimental: as §1

[5] = tested on: Emmenanthe penduliflora; assay: as above; type: in vivo; details: compound 1a at 100 ppb; constant darkness at 18° C.
Experimental: as §1

[6] = tested on: Rhodocoma arida; assay: as above; type: in vivo; details: compound 1a at 100 ppb; constant darkness at 18° C.
Experimental: as §1

[7] = tested on: Stylidium affine seeds; assay: Native bioassay; type: in vivo
Experimental: (§2) Conostylis aculeata and Stylidium affine seeds were obtained from Nindethana seed service and stored before use. For testing of aqueous samples, three replicates of 20-30 sterilised seeds were added to UV sterilised petri dishes (90 mm), containing two Whatman No. 1 filter papers (7 cm) moistened with the filtered test solution (2.5 mL, 0.22 μm). MP water was used as a control for each experiment and dilutions of each sample were used to ensure the optimum concentration range for activity. Petri dishes were then sealed with parafilm and incubated in the dark at 20±1° C. The seeds were scored on a weekly basis with optimum germination achieved between 4-6 weeks.

[8] = tested on: Conostylis aculeata seeds; assay: Native bioassay; type: in vivo
Experimental: as §2

[9] = tested on: Camissonia califomica; assay: Germination on moist filter paper in petri dishes; type: in vivo; details: SW 1/10 dilution, compound 1a 10 ppb
[10] = tested on: Passerina vulgaris; assay: Soil-based germination trial; type: in vivo; details: SW 1/10 dilution; compound 1a 10 ppb; in soil; also: tested at 0.01 ppm
Experimental: (§3) For the soil-based germination trials, four replicates of 25 seeds were soaked in the test solution (water (control) or compound 1 analogues at 10 ppb) for 24 hours, dried in a laminar flow cabinet and sowed in a germination mix. The soil-sown seeds were incubated in the dark at 20±1° C. and were scored on a weekly basis.

[11] = tested on: Ozothamnus cordifolium; assay: Soil-based germination trial; type: in vivo; details: SW 1/10 dilution; compound 1a 10 ppb; in soil; also: tested at 0.01 ppm
Experimental: as §3

[12] = tested on: Verticordia densiflora; assay: Soil-based germination trial; type: in vivo; details: SW 1/10 dilution; compound 1a 10 ppb; in soil; also: tested at 0.01 ppm
Experimental: as §3

[13] = tested on: Syncarpha vestita; assay: Soil-based germination trial; type: in vivo; details: SW 1/10 dilution; compound 1a 10 ppb; in soil; also: tested at 0.01 ppm
Experimental: as §3

[14] = tested on: Grevillea polybotrya; assay: Soil-based germination trial; type: in vivo; details: SW 1/10 dilution; compound 1a 10 ppb; in soil; also: tested at 0.01 ppm
Experimental: as §3

[15] = tested on: Rhodocoma arida; assay: Soil-based germination trial; type: in vivo; details: SW 1/10 dilution; compound 1a 10 ppb; in soil; 1a statistically significant with p < 0.08; also: tested at 0.01 ppm
Experimental: as §3

[16] = tested on: Conostylis candicans; assay: Soil-based germination trial; type: in vivo; details: SW 1/10 dilution; compound 1a 10 ppb; in soil; also: tested at 0.01 ppm
Experimental: as §3

[17] = tested on: Scaevola thesioides; assay: Soil-based germination trial; type: in vivo; details: SW 1/10 dilution; compound 1a 10 ppb; in soil; also: tested at 0.01 ppm
Experimental: as §3

[18] = tested on: Brunonia australis; assay: Soil-based germination trial; type: in vivo; details: SW 1/10 dilution; compound 1a 10 ppb; in soil; mean (SEM); also: tested at 0.01 ppm
Experimental: as §3

[19] = tested on: Emmenanthe penduliflora; assay: Germination on moist filter paper in petri dishes; type: in vivo; details: SW 1/10 dilution, compound 1a 10 ppb
[20] = tested on: somatic embryos induced from shoot and coleoptile explants of Baloskion tetraphyllum; assay: Reactivity of compound 1a with somatic tissue; type: cell-based; details: for Frequency of shoot formation / Number of shoots: after culturing for 20 days, compound 1a at 10 ppb; as to Frequency of shoot formation: tested at 0.01 ppm; as to Number of shoots: tested at 0.01 ppm
Experimental: Seeds were cultured on PGR-free 1/2 MS medium for 4 weeks in darkness, then 3 mm coleoptile sections were removed under aseptic conditions and explanted to culture media supplemented with […] 2,4-dichlorophenoxyacetic acid and compound 1a (0, 1.0, 10, 100 ppb, respectively), with incubation in darkness at 22-25° C. Each plate was inoculated with 10 coleoptile sections and every treatment was replicated by 6 plates. […] Shoots of Baloskion tetraphyllum were cultured on 1/2 MS basal medium supplemented with […] in 16 hr light culture (PPFD of 30 μmolm^−2s^−1). After two months, whole shoots were trimmed of upper leaf and basal roots to 4 mm in length, then explanted to culture media with 1 mM 2,4-dichlorophenoxyacetic acid and supplemented with different concentrations of compound 1a (0, 1.0, 10, 100 ppb, respectively) and incubated in darkness at 22-25° C. Each plate was inoculated with 10 trimmed shoots and every treatment replicated with 4 plates. Somatic embryogenesis and plant regeneration was investigated at various intervals.

[21] = tested on: Echinacea angustifolia; assay: Stimulation of germination in nutriceutically important plants; type: in vivo
Experimental: Three replicates of 25 seeds were placed on Petri dishes lined with seed germination paper. The Petri dishes were moistened with de-ionised water (control), 10 or 100 ppb compound 1a. Seeds were incubated in constant darkness at 18° C. Germination (radicle emergence) was recorded every 2-3 days until germination had ceased.

[22] = tested on: test species; assay: Germination tests in a range of test species; type: in vivo; details: each of the test species
Experimental: Grand Rapids Lettuce seeds (Waltham strain) were obtained from R.B. Dessert Seed Co. and were frozen in sachets until use. For testing of aqueous samples, 2.5 mL of test solution was applied to three replicates of 40-50 seeds in Petri dishes (90 mm) lined with two layers of Whatman No. 1 filter paper (7 cm). Millipore filtered water (MP water) was used as a control for each experiment and dilutions of each sample were used to ensure the optimum concentration range for activity. Fractions were reconstituted to their original concentration (before fractionation) and dilutions were made using MP water. Petri dishes were sealed with a layer of plastic wrap, and stored in a light proof container. All manipulations involving the seed were carried out in a dark room and germinants, based on the appearance of a radicle, were scored after 48 hours incubation.
Conostylis aculeata and Stylidium affine seeds were obtained from Nindethana seed service and stored before use. For testing of aqueous samples, three replicates of 20-30 sterilised seeds were added to UV sterilised petri dishes (90 mm), containing two Whatman No. 1 filter papers (7 cm) moistened with the filtered test solution (2.5 mL, 0.22 μm). […] The seeds were scored on a weekly basis with optimum germination achieved between 4-6 weeks.

[23] = 1/10 (of neat SW; of compound 1a 1 mg/L)
[24] = 1/100 (of neat SW; of compound 1a 1 mg/L)
[25] = Neat (neat SW; compound 1a 1 mg/L), mean (SEM)
[26] = compounds isolated from smoke, mean (SEM)

SMILES: Cc1c2ccocc-2oc1=O [Compound 1a, 3-Methyl-2H-furo[2,3-c]pyran-2-one]
- Germination, Passerina vulgaris [1]: 10.0 ± 4.1 b
- Germination, Stylidium affine [2]: 83.4 ± 3.7 b
- Germination, Syncarpha vestita [3]: 77.5 ± 6.3 b
- Germination, Conostylis aculeata [4]: 48.2 ± 3.9 b
- Germination, Emmenanthe penduliflora [5]: 82.0 ± 4.2 b
- Germination, Rhodocoma arida [6]: 53.3 ± 3.1 b
- Stylidium affine germination ([7]; 1/10 000 of compound 1a 1 mg/L): 39.9 (10.9) %
- Stylidium affine germination [7, 23]: 83.4 (3.7) %
- Stylidium affine germination [7, 24]: 71.8 (1.7) %
- Stylidium affine germination ([7]; 1/1000 of compound 1a 1 mg/L): 70.9 (3.1) %
- Stylidium affine germination [7, 25]: 79.0 (3.1) %
- Germination, Stylidium affine [7, 26]: 67.9 (2.5) %
- Conostylis aculeate germination ([8]; 1/10 000 of compound 1a 1 mg/L): 29.4 (3.4) %
- Conostylis aculeate germination [8, 23]: 48.2 (4.0) %
- Conostylis aculeate germination [8, 24]: 50.6 (6.5) %
- Conostylis aculeate germination ([8]; 1/1000 of compound 1a 1 mg/L): 43.0 (4.5) %
- Conostylis aculeate germination [8, 25]: 46.3 (3.1) %
- Germination, Conostylis aculeata [8, 26]: 46.5 (4.9) %
- Germination, Camissonia califomica [9]: 85.3 (±4.8) b %
- Germination, Passerina vulgaris [10]: 10.0 (±4.1) b %
- Germination, Ozothamnus cordifolium [11]: 24.0 (±4.3) c %
- Germination, Verticordia densiflora [12]: 11.1 (±1.2) b %
- Germination, Syncarpha vestita [13]: 77.5 (±6.3) b %
- Germination, Grevillea polybotrya [14]: 6.0 (±2.0) c %
- Germination, Rhodocoma arida [15]: *53.3 (±3.1) b %
- Germination, Conostylis candicans [16]: 36.0 (±6.7) b %
- Germination, Scaevola thesioides [17]: 17.0 (±5.5) b %
- Germination, Brunonia australis [18]: 25.0 (±2.5) b %
- Germination, Emmenanthe penduliflora [19]: 82.0 (±4.2) b %
- Frequency of shoot formation ([20]; Coleoptile explants): 37.0
- Number of shoots ([20]; Coleoptile explants): 4.5
- Frequency of shoot formation ([20]; Shoot explants): 58.6
- Number of shoots ([20]; Shoot explants): 7.8
- root formation and plantlet maturation ([20]; once somatic embryos are induced): significantly enhances
- plantlet recovery and regeneration ([20]; somatic embryos transferred to hormone-free medium): significantly improved
- effect on the induction phase of somatic embryogenesis ([20]; with 2,4-dichlorophenoxyacetic acid): no apparent effect
- germination of Echinacea angustifolia ([21]; 10 ppb compound 1a, mean ± standard error): 58.0 ± 5.5 b
- germination of Echinacea angustifolia ([21]; 100 ppb compound 1a): 74.0 ± 4.0 b
- concentration for which germination promoting activity has been shown [22]: 100 ppt
